Data on one molecule can be found in patent US8975234B2, “Anti-bacterial infection, inflammation, and leukemia composition and use thereof” (priority 2011, dated 2015).

Data set [1] concerns human erythromyeloblastoid leukemia K-562 cell. Put plainly: Cell viability WST-1 assay. The data set is classed as cell-based. On the procedure:
Quantitative cell viability assessed using WST-1 assay. WST-1 is a reagent which produces a highly water soluble formazan upon metabolically active cells, allowing a direct colorimetric measurement of cell viability.
The K-562 cells were plated in a 96-well culture plate at a seeding density of 6,000 cells/well (100 μL) and incubated at 37° C. with 5% CO2 for 16˜18 hours. Cells were treated with 20 μL Tellimagrandin II to make the final concentrations of 0, 20, 40, 60 and 80 μM, and incubated at 37° C. with 5% CO2 for 24 and 48 hours. Cells without Tellimagrandin II treatment used as a control. Added 12 μL of WST-1 reagent (10:1) to each well of the plate and mixed well, then incubated at 37° C. in a 5% CO2 incubator for 2 hours. After incubation, the absorbance at 450 nm (test wavelength) and 630 nm (reference wavelength) were measured. Data was calculated by subtracting the 630 nm background absorbance from the 450 nm measurement.
On the technique in general: Tetrazolium assays rely on reduction of a dye to a coloured formazan, in cell work by metabolically active cells.

In data set [2] the test system is K-562 cells. Put plainly: Apoptosis detection test (TUNEL). The conditions noted are these: 30 μM, 48 hours. Format: cell-based, human. The procedure:
TUNEL test was used to detect any DNA fragmentation to determine if cell enters apoptosis process.
A total of 10 mL cell solution at the concentration of 1×10^6K-562 cells per mL was cultured with 10 cm cell culture dishes in an incubator supplied with 5% CO2 at 37° C. for 30 minutes so that cells could adapt to the environment. Tellimagrandin II solutions of different concentrations were added by order so that the final concentrations are 0, 10, 20, 30, 40 and 50 μM respectively. The solution was placed in incubator with 5% CO2 at 37° C. for 48 hours before being centrifuged at 3,500 rpm at 4° C. for 5 minutes. After removing the supernatant, the cells were rinsed by PBS once. A total of 1 mL 1% Trioxane (diluted from 10% Trioxane solution with PBS) was added and the solution was left to react at room temperature for 30 minutes to one hour. Then, the solution was centrifuged at 3,500 rpm at 4° C. for 5 minutes. After removing the supernatant, 70% ethanol was added and the solution was placed at −20° C. for 16-18 hours for cell fixation.
After cell fixation, the solution was centrifuged at 400 rpm at 4° C. for 10 minutes before removing the supernatant. […] Finally, 1 mL PBS was used to resuspend the cells before BD FACS can was used to detect the fluorescent signal and the quantitative results are in FIG. 15. […]

Data set [3] relates to human embryonic kidney cell line HEK 293. Put plainly: Cell viability assay (alamarBlue). The data set is classed as cell-based. Particulars: 40 μg/mL, 24 hours. The procedure:
(§1) Cell viability was measured using alamarBlue. For cell viability assays, human embryonic kidney cell line HEK 293 and human hepatoma cell line Hep G2 were plated 180 μL in each well on a 96-well plate (for HEK 293, at a density of about 10,000 cells/well; for Hep G2, at a density of about 7500 cells/well). The cells were grown overnight (16˜18 hours) and left to attach. After overnight incubation, 20 μL of Tellimagrandin II was added to give final concentrations of 0, 20, 30, 40 and 50 μg/mL. The cultures with 0 μg/mL Tellimagrandin II and without adding additional drug (medium only) were as controls. The cells are then incubated in a 5% CO2, 37° C. incubator for 24 hours. After 24 hours, 100 μL of alamarBlue was added to each well, and cultured in a 5% CO2, 37° C. incubator for 4 hours. Absorbance was monitored at 570 nm and 600 nm and cell viability was determined.
On the technique in general: Alamar Blue is a resazurin reagent that responds to reducing activity.

The test system of data set [4] is human hepatoma cell line Hep G2. Put plainly: Cell viability assay (alamarBlue). The data set is classed as cell-based. Particulars: 40 μg/mL, 24 hours. On the procedure:
as §1

Data set [5] is described as follows: DPPH scavenging assay. On the procedure:
Test reagents, natural extracts and Vitamin C (ascorbic acid) were dissolved in methanol to make a stock solution 10×. Vitamin C was used as the positive control. 120 μM DPPH solution was prepared. Taken 20 μL of stock reagents, natural extracts and Vitamin C on a 96-well microplate, and methanol was added to make up to the total volume of 100 μL. Control was 100 μL methanol. Each sample was mixed with 100 μL DPPH solution and incubated in the dark for 40 minutes. DPPH level of each well was evaluated by detecting the optical density of each well at 517 nm and the results were shown in Table 5.

Data set [6] deals with MSSA (Methicillin-susceptible Staphylococcus aureus). Put plainly: Minimum inhibitory concentration (broth microdilution) and FIC index. The data set is classed as cell-based. The conditions noted are these: Staphylococcus aureus, MSSA, read-out: Minimum inhibitory concentration. A general note: In broth dilution the organism is exposed to a series of concentrations in liquid medium.

Usually IC50 stands for the concentration that inhibits the measured activity by half. Higher therefore signals a need for much substance. For `O=C(OC1O[C@@H]2COC(=O)c3cc(O)c(O)c(O)c3-c3c(cc(O)c(O)c3O)C(=O)O[C@H]2[C@H](OC(=O)c2cc(O)c(O)c(O)c2)[C@H]1OC(=O)c1cc(O)c(O)c(O)c1)c1cc(O)c(O)c(O)c1` (stereo partly shown) [Tellimagrandin II], the IC50 worked out at 57 µM in data set [1] (K562, 24 hr) and 48.1 µM in data set [1] (K562, 48 hr). Moreover, in data set [2], the “DNA fragmentation, TUNEL fluorescent signal” value was “fluorescent signals were detected”. The Cell viability entry in data set [3] and in data set [4] was “at least 80%” throughout. The “DPPH free-radical scavenging activity” value in data set [5] (20 μg/mL, +FeCl2 (50 μM)) is on record as 56.61 ± 4.05%; in data set [5] (20 μg/mL, −FeCl2), 80.52 ± 0.4%; in data set [5] (40 μg/mL, +FeCl2 (50 μM)) it was 57.43 ± 2.49%; in data set [5] (40 μg/mL, −FeCl2), 79.47 ± 0.2%. In addition, the MIC in data set [6] was determined as 64 µg/mL.
